The test system of one data set is GlucDH mut 2. Description: Enzymatic reduction of Acetyl-cNAD by GlucDH mut 2 with glucose. It is filed as biochemical. The settings on record: 25° C., Tris-buffer pH 8.5, glucose, UV/VIS spectra after 30 min. The procedure:
Acetyl-cNADH and for comparison cNAD, cNADP were reduced by using GlucDH mut 2 (WO2010/094632) using the following conditions:
A Dilution buffer (NaCl 0.2 mol/l; Tris 0.1 mol/l; pH 8.5) was prepared as follows: 11.7 g NaCl and 12.1 g Tris (=[…]) were dissolved in 900 ml bidest. water and the pH was adjusted to pH 8.5 by addition of HCL 1N and filled to 1.00 l with bidest. Water.
Glucose-solution: 2.00 g D(+)-Glucose-Monohydrate were dissolved in 10.0 ml bidest. water. The solution is ready for usage after 2 h at room temperature.
GlucDH2-stock-solution: 10.0 mg of the enzyme (Lyo) were dissolved in 1.00 ml Tris-buffer.
Reduction of Acetyl-cNAD-solution (15 mmol/l): 9.90 mg Acetyl-cNAD (Mw=659.47 g/mol) were dissolved in 1.00 ml bidest. water.
100 μl GlucDH2-stock-solution were dissolved in 0.90 ml dilution buffer (dilution factor=10).
1. The tempered (25° C.) reagent solutions were pipetted into a 1 cm plastic cuvette as follows:
(§1) After mixing and tempering to 25° C., the reaction was started by addition of 0.05 ml the above mentioned corresponding GlucDH2-solutions. An UV/VIS spectra was recorded after 30 min.

The nature of data set [1]: UV/VIS absorption spectrum after enzymatic reduction. It is filed as physicochemical. The following applies: FIG. 1, reduced form. As for the experimental part:
as §1
This is a significant advantage for redox-based assays, since it allows to reduce or avoid the interference from auto-fluorescent compounds comprised in (biological) samples

Take `CC(=O)c1ccc[n+]([C@@H]2C[C@H](COP(=O)([O-])OP(=O)(O)OC[C@H]3O[C@@H](n4cnc5c(N)ncnc54)[C@H](O)[C@@H]3O)[C@@H](O)[C@H]2O)c1` [Acetyl-cNAD]: the “coenzyme function for a dehydrogenase” value in the data set on GlucDH mut 2 is recorded as “serves as a coenzyme for a dehyrogenase”. As to Acetyl-cNADH, the absorption maximum result in data set [1] is on record as “about 380 nm”.

The values are drawn from patent US20130303768A1, “METHOD AND SUBSTANCES FOR PREPARATION OF N-SUBSTITUTED PYRIDINIUM COMPOUNDS” (ROCHE DIAGNOSTICS OPERATIONS, INC., priority 2011, published 2013).
